Results as given in BindingDB's records for doi:10.1016/j.bmcl.2008.06.042 (Ariad Pharmaceuticals, 2008).

Biological target: FLT3 receptor tyrosine kinase (Homo sapiens) (UniProt P36888)
Test: Inhibition of Flt3

Chain of FLT3 receptor tyrosine kinase (Homo sapiens) (P36888 whole entry, looked up): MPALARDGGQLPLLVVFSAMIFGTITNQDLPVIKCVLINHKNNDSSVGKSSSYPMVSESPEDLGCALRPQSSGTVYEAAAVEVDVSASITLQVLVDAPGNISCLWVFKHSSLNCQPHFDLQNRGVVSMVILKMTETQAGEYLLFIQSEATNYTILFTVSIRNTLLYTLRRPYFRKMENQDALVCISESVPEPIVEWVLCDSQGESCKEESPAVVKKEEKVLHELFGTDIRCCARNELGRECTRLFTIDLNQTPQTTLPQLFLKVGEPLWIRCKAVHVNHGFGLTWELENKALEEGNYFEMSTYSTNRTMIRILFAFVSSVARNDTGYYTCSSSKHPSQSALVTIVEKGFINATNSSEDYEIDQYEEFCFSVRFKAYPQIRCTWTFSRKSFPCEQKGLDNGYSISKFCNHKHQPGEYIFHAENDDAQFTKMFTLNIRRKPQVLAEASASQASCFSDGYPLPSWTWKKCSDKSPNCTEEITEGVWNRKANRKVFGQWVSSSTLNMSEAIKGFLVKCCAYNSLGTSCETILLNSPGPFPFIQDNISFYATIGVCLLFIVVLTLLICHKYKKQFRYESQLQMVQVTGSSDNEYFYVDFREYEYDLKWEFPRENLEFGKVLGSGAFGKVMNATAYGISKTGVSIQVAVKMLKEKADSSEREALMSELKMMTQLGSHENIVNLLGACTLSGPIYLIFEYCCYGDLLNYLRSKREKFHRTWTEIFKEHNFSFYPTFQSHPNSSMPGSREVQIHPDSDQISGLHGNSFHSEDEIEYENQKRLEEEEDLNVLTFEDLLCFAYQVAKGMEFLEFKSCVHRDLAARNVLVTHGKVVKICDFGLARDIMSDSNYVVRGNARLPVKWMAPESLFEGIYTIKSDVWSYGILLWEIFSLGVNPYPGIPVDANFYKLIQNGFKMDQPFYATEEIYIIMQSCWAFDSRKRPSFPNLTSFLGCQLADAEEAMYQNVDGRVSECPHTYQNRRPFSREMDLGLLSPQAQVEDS

IC50: > 1 µM
Structure (SMILES): Cc1cccc(C)c1/C=C/n1cnc2c(Nc3ccc(P(C)(C)=O)cc3)ncnc21 [AP24149]
